How the values were obtained:
[1] = system: Rat model loaded with high cholesterol diet; test: Blood cholesterol lowering effect in rats fed on a high cholesterol diet (Test Example 1); format: in vivo; settings: treatment model; 0.3 mg/kg at a time, oral twice a day; control group = 100%
Method: Blood Cholesterol Lowering Effect in Rats Fed on a High Cholesterol Diet
In this test example, blood cholesterol level lowering effect in rats fed on a high cholesterol diet was tested according to the method described in J. Lipid, Res., 1995, 36, 1098-1105.
That is, a diet containing 0.4% cholesterol and 0.5% of bile acid was given to 7 to 9 weeks old SD (IGS) male rats for 5 days before the test to increase the blood cholesterol level. […] Cholestimide (trade name: CHOLEBINE GRANULE 70% manufactured by MITSUBISHI TOKYO PHARMACEUTICALS, INC.), which is an anion exchange resin, was suspended in distilled water while the test compound was either dissolved or suspended in distilled water. These were forcibly orally administered twice a day every day from the day of beginning of the test (each n=8). After 3 hours from the administration of the drug on the last day of the test, a blood sample was taken from a jugular vein pool and serum cholesterol level was measured to study the effect of the test compound. Further, as a control group, a group (n=8) fed on only high cholesterol diet and given distilled water (1 ml/kg) was prepared and the same test procedure was followed. A commercially available kit was used for the measurement of total cholesterol and HDL cholesterol. The value obtained by subtracting an HDL cholesterol value from the total cholesterol value was taken as an LDL+VLDL cholesterol value. Assuming the LDL+VLDL cholesterol value of the control group, for which the test compound was not used, as 100%, the rate of decrease (percentage of decrease) of LDL +VLDL cholesterol value when a fixed amount of the test compound was used, was determined.

[2] = system: bile duct partial ligation model; test: Cholestasis-caused hepatopathy model, bile duct partial ligation, protocol A (Test Example 5); format: in vivo, rat; settings: 1 mg/kg twice a day 3.5 days, 1% HCO60, average ± standard error; for ALT: controls 417 ± 185 / 384 ± 156; for AST: controls 589 ± 221 / 643 ± 125; for ALP: controls 2318 ± 583 / 2204 ± 327
Method: “Cholestasis-Caused Hepatopathy” Model (Bile Duct Partial Ligation Model)
The “cholestasis-caused hepatopathy” model by partial ligation surgery of bile duct in this test example was handled by referring to the method by Kanno et al. [Kanzo (Liver) 43 Suppl (1): A126, 2002].
That is, the abdomen of a 7 to 10 weeks old SD (IGS) male rat was cut open under anesthesia with pentobarbital and partial ligation surgery of the bile duct was carried out. A blood sample was taken from the femoral vein before the surgery and this was taken as pre-administration value. The test compound and 200 mg/kg of bile acid were forcibly orally administered twice a day for 3.5 days from the next day of the surgery (protocol A). The test compound and 200 mg/kg of bile acid were forcibly orally administered twice a day for 3.5 days without carrying out the partial ligation surgery (protocol B). In both the cases, the test compound was dissolved or suspended in distilled water or an aqueous solution of 1% HCO60 (manufactured by NIPPON CHEMICALS COMPANY, LTD.). […] Moreover, to consider the influence of the surgery, a pseudo operation group (a Sham group) was established as necessary. After 6 hours from the administration of the drug on the last day of the test, a blood sample was taken from the abdominal aorta and AST (GOT), ALT (GPT), and ALP in the blood were measured by using a measurement kit (GOTII-HA TEST WAKO, GPTII-HA TEST WAKO, and ALKALINE PHOSPHER-HA TEST WAKO respectively, all manufactured by WAKO PURE CHEMICAL […], LTD.) with an auto analyzer (NITTECH ANALYZER SUPER Z818).

KKAy/Ta Jcl obese mice = test: Obesity and fatty liver model (Test Example 6); format: in vivo, mouse; settings: average ± standard error; for Body Weight (g) 2 weeks later / Liver triglyceride / Body Weight (g) Variation amount: 1 mg/kg once a day for 2 weeks; for Liver triglyceride: controls 94 ± 18 / 103 ± 19; for Body Weight (g) Variation amount: controls −0.8 ± 0.5 / 0.7 ± 0.4; for Body Weight (g) Before administration: baseline of the 1 mg/kg group
Method: Obesity and Fatty Liver Model
The obesity and fatty liver model in this test example was handled by referring to the method described in WO02/09757.
That is, 10 weeks old KKA^y/Ta Jcl male mice were used as obese mice (N=from 4 to 7). The test compounds dissolved or suspended in an aqueous solution of 1% HCO60 (manufactured by NIPPON CHEMICALS COMPANY, LTD.) and an aqueous solution of 1% HCO60 (manufactured by NIPPON CHEMICALS COMPANY, LTD.) as a control group were administered once a day for 2 weeks continuously. The weights of the mice were measured every day and compared with the weights measured on the day before the administration. On the day next to the final day of administration of the drug, the livers were extracted and concentrations of triglycerides in the liver tissues were measured by using a measurement kit (TRIGLYCERIDE TEST WAKO, manufactured by WAKO PURE CHEMICAL […], LTD.).

Row | SMILES | Rate of decrease (%) of LDL + VLDL [1] | ALT [2] | AST [2] | ALP [2] | Body Weight (g) 2 weeks later (KKAy/Ta Jcl obese mice) | Liver triglyceride (KKAy/Ta Jcl obese mice) | Body Weight (g) Variation amount (KKAy/Ta Jcl obese mice) | Body Weight (g) Before administration (KKAy/Ta Jcl obese mice)
1 | CCCCC1(CCCC)CS(=O)(=O)c2ccc(N(C)C)cc2C(c2cccc(NC(=S)Nc3ccc(C[n+]4ccc(C(C)(C)C)cc4)cc3)c2)N1.[Br-] (centres unmarked) [Example 3713] | 41% | 163 ± 96 IU/L | 280 ± 61 IU/L | 1008 ± 289 IU/L | 41.5 ± 2.4 g | 59 ± 33 mg/g | -2.5 ± 0.6 g | 44.0 ± 1.1 g
2 | CCCCC1(CCCC)CS(=O)(=O)c2ccc(N(C)C)cc2C(c2cccc(NC(=S)Nc3ccc(C[N+]4(Cc5ccccc5)CCC(O)CC4)cc3)c2)N1.[Br-] (centres unmarked) [Example 3605] | 28% | 258 ± 219 IU/L | 487 ± 382 IU/L | 1489 ± 533 IU/L | 41.4 ± 1.0 g | 65 ± 7 mg/g | -1.5 ± 0.4 g | 42.9 ± 1.1 g
3 | C#CC[N+](C)(Cc1ccccc1)Cc1ccc(NC(=S)Nc2cccc(C3NC(CCCC)(CCCC)CS(=O)(=O)c4ccc(N(C)C)cc43)c2)cc1 (centres unmarked) [Example 3448] | 20% | 181 ± 79 IU/L | 352 ± 210 IU/L | 1148 ± 332 IU/L | 42.1 ± 3.2 g | 74 ± 8 mg/g | -2.0 ± 0.7 g | 44.1 ± 0.7 g
4 | CCCCC1(CCCC)CS(=O)(=O)c2ccc(N(C)C)cc2C(c2cccc(NC(=S)Nc3ccc(C[N+]45CCC(c6ccccc6)(CC4)CC5)cc3)c2)N1.[Br-] (centres unmarked) [Example 3696] | 25% | 191 ± 21 IU/L | 325 ± 87 IU/L | 1209 ± 125 IU/L | 42.2 ± 2.2 g | 76 ± 12 mg/g | -1.3 ± 0.3 g | 43.5 ± 1.3 g
5 | CCCCC1(CCCC)CS(=O)(=O)c2ccc(N(C)C)cc2C(c2cccc(NC(=S)Nc3ccc(C[N+](C)(C)Cc4ccccc4)cc3)c2)N1.[Br-] (centres unmarked) [Example 3440] | 36% | 155 ± 38 IU/L | 309 ± 37 IU/L | 1614 ± 189 IU/L | 43.9 ± 1.8 g | 88 ± 6 mg/g | -0.7 ± 1.0 g | 44.6 ± 0.8 g
6 | CCCCC1(CCCC)CS(=O)(=O)c2ccc(N(C)C)cc2C(c2cccc(NC(=S)CCCCC[N+]34CCC(CC3)CC4)c2)N1.[Br-] (centres unmarked) [Example 1, 1-{5-[3-(3,3-Dibutyl-7-dimethylamino-1,1-dioxo-2,3,4,5-tetrahydro-1,4-benzothiazepin-5-yl)phenylthiocarbamoyl]pentyl}-1-azoniabicyclo[2.2.2]octane bromide] | 49% | – | – | – | – | – | – | –
7 | CCCCC1(CCCC)CS(=O)(=O)c2ccc(N(C)C)cc2C(c2cccc(NC(=S)Nc3ccc(C[n+]4cccc(CCCO)c4)cc3)c2)N1.[Br-] (centres unmarked) [Example 3747] | 48% | 146 ± 70 IU/L | 245 ± 81 IU/L | 960 ± 259 IU/L | 42.2 ± 1.8 g | 47 ± 23 mg/g | -2.1 ± 1.0 g | 44.3 ± 0.8 g
8 | CCCCC1(CCCC)CS(=O)(=O)c2ccc(N(C)C)cc2C(c2cccc(NC(=S)Nc3ccc(C[n+]4ccccc4CCC)cc3)c2)N1.[Br-] (centres unmarked) [Example 5408] | 43% | 197 ± 45 IU/L | 198 ± 65 IU/L | 1005 ± 102 IU/L | 42.2 ± 1.6 g | 70 ± 11 mg/g | -1.8 ± 0.5 g | 44.0 ± 0.9 g
9 | CCCCC1(CCCC)CS(=O)(=O)c2ccc(N(C)C)cc2C(c2cccc(NC(=S)Nc3ccc(C[n+]4cccc(CCC(=O)OC)c4)cc3)c2)N1.[Br-] (centres unmarked) [Example 3752] | 50% | 165 ± 47 IU/L | 358 ± 87 IU/L | 1112 ± 184 IU/L | 41.5 ± 1.0 g | 56 ± 23 mg/g | -2.3 ± 0.9 g | 43.8 ± 1.2 g

From US7803792B2, “Quaternary ammonium compounds” (Asahi Kasei Pharma Corporation, priority 2002, dated 2010)
